Laboratory results as given in US20160097044A1, “Antimicrobial Enzyme Fusions Reduce Resistance and Kill Intracellular Staphylococcus aureus” (The United States of America, as Represented by the …, priority 2014, published 2016).

Assays:
S. aureus Newbould 305 [1] = assay: Turbidity reduction assay; type: cell-based; settings: 1 μM enzyme, cells at OD600nm 1.0, FIG. 6a
Description: (§1) FIG. 6a depicts the specific activity of peptidoglycan hydrolase fusion constructs in vitro in a turbidity reduction assay with S. aureus Newbould 305 resuspended in lysis buffer to an OD600nm of 1.0 and treated with 1 μM final concentrations of each peptidoglycan hydrolase. The maximum specific activity for three experiments are represented as an average with SEM error bars. FIG. 6b depicts the bacterial burden in mice with mastitis treated with recombinant peptidoglycan hydrolases. Colony Forming Units (CFUs) from infected murine mammary glands following a single treatment with 50 μl of 25 μM peptidoglycan hydrolase (1.25 nmol). Each data point represents the average of duplicate bacterial platings. The horizontal bars represent the average CFU/mg for each group. FIG. 6c illustrates the TNFα response in mice with mastitis that were treated with peptidoglycan hydrolases. Data represents a minimum of 7 measurements in duplicate. Log TNFα was used for statistical analysis. Single asterisks indicate a significant difference from buffer control (p<0.05); double asterisks indicate a significant difference from the parental enzyme (p<0.05).
FIG. 7 depicts a turbidity reduction assay of select peptidoglycan hydrolases against S. aureus Newbould 305. Bacterial cells were resuspended in lysis buffer to an OD600nm of 1.0 and lysed with 1 μM final concentrations of each peptidoglycan hydrolase. The maximum rate of ΔOD of three experiments are represented as an average with error bars representing SEM. Double asterisks indicate significant difference from parental. Mean comparisons were performed with one way ANOVA (P=3.3×10^−5) with t test post hoc analysis with Sidák adjusted alpha (p<0.01).

S. aureus Newbould 305 [2] = assay: Murine model of mastitis, bacterial load; type: in vivo, C57BL6/SJL mice; settings: for bacterial load / clearance of mammary glands (in words): single 1.25 nmoles intramammary infusion 30 minutes post infection, 18 h
Description: as §1
To evaluate the efficacy of purified, individually administered peptidoglycan hydrolases in a murine model of bovine mastitis, female C57BL6/SJL mice were challenged by the intramammary route with 100 CFU S. aureus Newbould 305 in 50 μl buffer. A single 1.25 nmoles intramammary infusion of each desired peptidoglycan hydrolase (50 μl of a 25 μM solution) or 50 μl PBS was given 30 minutes post infection [with up to six glands treated per animal, each gland receiving a unique treatment] as described earlier (Schmelcher et al. 2012. Appl. Environ. Microbiol. 78:2297-2305; Kerr et al. 2001. Nat. Biotechnol. 19:66-70). Dams were euthanized 18 h post infusion, the mammary glands were aseptically dissected, and portions of the gland were used for determination of bacterial load and TNFα concentrations, as described previously (Schmelcher et al., supra).
Statistical analysis: The variables were analyzed as two-factor mixed models with Treatment as the factor and Mouse as random Blocks. This model […] within mouse correlations. Log(TNFα) was used. The variance grouping technique was used for log CFU and log TNFα to correct for variance heterogeneity. Means comparisons were done with Sidak adjusted p-values so that the experiment-wise error was 0.05. Log(TNFα) is back-transformed to the original units for graphing.

TNFα = assay: Murine model of mastitis, TNFα response; type: in vivo, C57BL6/SJL mice; settings: mice with mastitis
Description: as §1, with “(p<0.05). […]” for “(p<0.05).”
Statistical analysis: The variables were analyzed as two-factor mixed models with Treatment as the factor and Mouse as random Blocks. […]

[3] = tested on: intracellular S. aureus Newbould 305 in bovine mammary epithelial cell line (MAC-T); assay: Intracellular S. aureus eradication assay in MAC-T cells; type: cell-based; settings: 25 μg in 1 ml DMEM, 2.5 h
Description: (§2) FIGS. 5a-5e depict peptidoglycan hydrolase-protein transduction domain (PGH-PTD) eradication of intracellular S. aureus in cultured cells. Cultured cells were infected, treated with gentamicin to kill extracellular S. aureus, and then treated with the peptidoglycan hydrolases indicated. All results are standardized to the gentamicin (GENT) only control. Nomenclature of the peptidoglycan hydrolase constructs is as in FIG. 1. Asterisks indicate statistical significance detected with single factor ANOVA (α=0.05) with paired t-test posthoc analyses α=0.05 adjusted with Sidák correction for multiple comparisons (for all cases p<0.01). […] Error bars represent SEM. […] Yellow staining in the combined panel represents intracellular co-localization (in a single plane as determined by z-stack analysis) of both S. aureus and K-L-PTD1 (blue arrow). […]
(§3) Three similar intracellular S. aureus eradication assays from three different labs were optimized for (A) a cultured bovine mammary epithelial cell line (MAC-T, Nexia Biotechnologies, Quebec, Canada; Almeida, supra), (B) primary C57BL/6 mouse-derived osteoblasts (mOBs) (McCall et al. 2008. J. Bone Miner. Res. 23: 30-40) or (C) human brain microvascular endothelial cells (hBMEC; Stins, supra). […] The cell lysate was subjected to serial dilution plating, and the resultant CFUs were counted and normalized to the gentamicin control for each assay. […]

[4] = tested on: intracellular S. aureus strain ISP479C in human brain microvascular endothelial cells (hBMEC); assay: Intracellular S. aureus eradication assay in hBMEC; type: cell-based; settings: 5 μg/ml, 1 h
Description: as §2, §3

[5] = tested on: intracellular S. aureus strain UAMS-1 in murine calvaria; assay: Ex vivo neonatal mouse calvaria intracellular eradication; type: cell-based
Description: (§4) Neonatal mouse whole calvaria were treated for 4 hours with chimeric peptidoglycan hydrolases or buffer alone, 24 hours post inoculation with GFP-expressing S. aureus. Calvaria were embedded in freeze media, sectioned, and subjected to fluorescence imaging. The image shown is a representative figure for triplicate sections of three separate calvaria. FIG. 8b depicts fluorescence intensity from these sections measured in ImageJ and defined as arbitrary fluorescence standardized to the untreated control. Error bars represent SEM of four replicate experiments. FIG. 8c depicts ex-vivo intracellular S. aureus eradication. Infected calvaria were homogenized and CFU were counted post treatment. Error bars represent SEM. FIG. 8d depicts a murine model of staphylococcal osteomyelitis. C57BL/6J mice were anesthetized and their femurs were surgically exposed. A trough was drilled through the bone cortex and the damaged bone sites were inoculated with 1×10^3 CFU S. aureus in agarose beads. After 24 hours, mice were treated (i.m. to site of infection) twice in a 24 h period with PBS or 5 mg/kg of triple fusion K-L or K-L-PTD1. The femurs were removed, homogenized, and plated to quantify the bacterial load. Bars indicate the average CFU recovered (N=6). […] Asterisks represent statistical significance as determined by one-way ANOVA followed by Tukey's posthoc test.
To examine the intracellular uptake and eradication in murine osteoblast-containing tissue samples, both ex vivo calvaria (skull cap), and in vivo femur injury models were tested. Calvaria were isolated from neonatal mice and infected with UAMS-1 strain of S. aureus (1×10^6 bacteria/calvaria) for 2 h at 37° C. in osteoblast growth medium in the absence of antibiotics. Following 3× washes with PBS, calvaria were exposed to 50 μg/ml of gentamicin for 15 min to kill extracellular bacteria and further cultured in gentamicin containing osteoblast growth media. After 24 h later, calvaria were treated with peptidoglycan hydrolases (5 μg/ml) or gentamicin only control for 2 h. Lysis buffer containing 0.05% trypsin and 0.25% Triton X-100 was used to homogenize the calvaria, the homogenates were quantitatively plated on LB agar plates, and the CFU were enumerated after 24 h. The data represents triplicate determinants of two separate experiments.
Calvaria were isolated, and infected as described above using GFP-tagged UAMS-1 strain of S. aureus. Two hours post-infection, calvaria were washed with PBS followed by a 15 minutes treatment with 50 μg/ml gentamicin to kill extracellular bacteria. 24 hours post-infection, calvaria were treated with 5 μg/ml peptidoglycan hydrolases or gentamicin only control for two hours and embedded in Tissue-Tek O.C.T compound (Sakura, Torrance, Calif.). […]

S. aureus = assay: Murine model of staphylococcal osteomyelitis (femur); type: in vivo, C57BL/6J mice; settings: 5 mg/kg i.m. at site of infection, twice in 24 h, N=6
Description: as §4, with “A trough was drilled through the bone cortex and the damaged bone sites were inoculated with 1×10^3 CFU S. aureus in agarose beads. After 24 hours, mice were treated (i.m. to site of infection) twice in a 24 h period with PBS or 5 mg/kg of triple fusion K-L or K-L-PTD1.” left out, “load.” for “load. Bars indicate the average CFU recovered (N=6).”
We utilized a previously described (Marriott, supra) murine model of staphylococcal osteomyelitis that reproduces the clinical and gross pathological phases of inflammatory bone diseases, such as human post-traumatic osteomyelitis. […] Asterisks represent statistical significance as determined by one-way ANOVA followed by Tukey's posthoc test.

Substance: L-PTD1: lysostaphin-His6 with C-terminal PTD 1 (Antp 43-58); SEQ ID NO:9
- turbidity reduction (in vitro lytic) activity (S. aureus Newbould 305 [1]): reduced the in vitro activity
- bacterial load / clearance of mammary glands (in words) (S. aureus Newbould 305 [2]): further decreased the mean bacterial load
- TNFα response (in words) (TNFα): further decreased the mean bacterial load and TNFα concentration

Substance: 1-Sigma: commercial lysostaphin (Sigma-Aldrich, St. Louis, Mo.)
- intracellular S. aureus CFUs relative to gentamicin only control [3]: Neither commercial lysostaphin (1-Sigma; Sigma-Aldrich, St. Louis, Mo.) nor the C-terminal His6-tagged lysostaphin (construct 1) were able to decrease the intracellular CFUs
- intracellular S. aureus CFUs relative to gentamicin only control [4]: Neither commercial lysostaphin (1-Sigma; Sigma-Aldrich, St. Louis, Mo.) nor the C-terminal His6-tagged lysostaphin (construct 1) were able to decrease the intracellular CFUs

Substance: K-L-PTD1: triple fusion K-L with C-terminal PTD 1 (Antp 43-58); SEQ ID NO:53, protein SEQ ID NO:54
- turbidity reduction (in vitro lytic) activity (S. aureus Newbould 305 [1]): reduced the in vitro activity
- greater CFU reduction than triple fusion K-L in the mastitis model (S. aureus Newbould 305 [2]; in vivo, compared with triple fusion K-L): ~3 orders of magnitude
- bacterial load / clearance of mammary glands (in words) (S. aureus Newbould 305 [2]): clearance of the mammary gland to a level equivalent to that of lysostaphin alone or L-PTD1
- live bacteria (CFU) recovered from calvaria ([5]; 5 μg/ml for 2 h, homogenized calvaria): able to reduce the number of live bacteria recovered from sectioned calvaria
- elimination of GFP-labeled intracellular S. aureus (fluorescence) ([5]; 5 μg/ml, 24 hours post-infection, sectioned calvaria): able to eliminate GFP-labeled intracellular S. aureus strain UAMS-1 from murine calvaria
- bacterial load in femur compared to no treatment (S. aureus): significantly reduced bacterial load as compared to no treatment
